Results: patent US4232035A, “Carbamate pesticidal compounds compositions and methods of use” (priority 1975, dated 1980)

Assays:
Assay type in all cases: in vivo
[1] = system: bean aphid (Aphis fabae Scop.); experiment: Bean Aphid Foliage Spray Test; parameters: key: A: excellent control; B: partial control; C: no control; details: 500 parts per million foliage spray; 24 hour holding period
Protocol: (§1) Suspensions of the test compounds were prepared by dissolving one gram of compound in 50 milliliters of acetone in which had been dissolved 0.1 gram (10 percent of the weight of compound) of an alkylphenoxy polyethoxyethanol surfactant, as an emulsifying or dispersing agent. The resulting solution was mixed into 150 milliliters of water to give roughly 200 milliliters of a suspension containing the compound in finely divided form. The thus-prepared stock suspension contained 0.5 percent by weight of compound. The test concentrations in parts per million by weight employed in the tests described hereinbelow were obtained by appropriate dilutions of the stock suspension with water. The test procedures were as follows:
Adults and nymphal stages of the bean aphid (Aphis fabae Scop.) reared on potted dwarf nasturtium plants at 65°-70° F. and 50-70 percent relative humidity, constituted the test insects. For testing purposes, the number of aphids per pot was standardized to 100-150 by trimming plants containing excess aphids.
The test compounds were formulated by diluting the stock suspension with water to give a suspension containing 500 parts of test compound per million parts of final formulation.
The potted plants (one pot per compound tested) infested with 100-150 aphids, were placed on a revolving turntable and sprayed with 100-110 milliliters of test compound formulation by use of a DeVilbiss spray gun set at 40 psig. air pressure. This application, which lasted 25 seconds, was sufficient to wet the plants to run-off. As a control, 100-110 milliliters of a water-acetone-emulsifier solution containing no test compound were also sprayed on infested plants. After spraying, the pots were placed on their sides on a sheet of white standard mimeograph paper which had been previously ruled to facilitate counting. Temperature and humidity in the test room during the 24 hour holding period were 65°-70° F. and 50-70 percent, respectively. Aphids which fell onto the paper and were unable to remain standing after being uprighted were considered dead. Aphids remaining on the plants were observed closely for movement and those which were unable to move the length of the body upon stimulation by prodding were considered dead. Percent mortality was recorded for various concentration levels.

[2] = system: house flies (Musca domestica, L.); experiment: Fly Bait Test; parameters: key: A: excellent control; B: partial control; C: no control; details: 500 parts per million bait in sugar solution; twenty four hours
Protocol: as §1
Four to six day old adult house flies (Musca domestica, L.) reared according to the specifications of the Chemical Specialties Manufacturing Association (Blue Book, McNair-Dorland Co., N.Y. 1954; pages 243-244, 261) under controlled conditions of 80°±5° F. and 50±5 percent relative humidity, were the test insects. The flies were immobilized by anesthetizing with carbon dioxide and twenty five immobilized individuals, males and females, were transferred to a cage consisting of a standard food strainer about five inches in diameter which was inverted over a wrapping-paper-covered surface. The test compounds were formulated by diluting the stock suspension with a 10 percent (by weight) sugar solution to give a suspension containing 500 parts of test compound per million parts of final formulation, by weight. Ten milliliters of the test formulation were added to a souffle cup containing a one-inch square of an absorbent cotton pad. This bait cup was introduced and centered on the blotting paper under the food strainer prior to admitting the anesthetized flies. The caged flies were allowed to feed on the bait for twenty four hours, at a temperature of 80°±5° F. and the relative humidity of 50±5 percent.

[3] = system: southern armyworm (Prodenia eridania, (Cram.)); experiment: Southern Armyworm Leaf Spray Test; parameters: key: A: excellent control; B: partial control; C: no control; details: 500 parts per million leaf spray; three days
Protocol: as §1
Larvae of the southern armyworm (Prodenia eridania, (Cram.)), reared on Tendergreen bean plants at a temperature of 80°±5° F. and a relative humidity of 50±5 percent, constituted the test insects.
The test compounds were formulated by diluting the stock suspension with water to give a suspension containing 500 parts of test compound per million parts of final formulation. Potted Tendergreen bean plants of standard height and age were placed on a revolving turntable and sprayed with 100-110 milliliters of test compound formulation by use of a DeVilbiss spray gun set at 10 psig air pressure. This application, which lasted 25 seconds, was sufficient to wet plants to run-off. As a control, 100-110 milliliters of a water-acetone-emulsifier solution containing no test compound were also sprayed on infested plants. When dry, the paired leaves were separated and each one was placed in a 9 centimeter Petri dish lined with moistened filter paper. Five randomly selected larvae were introduced into each dish and the dishes were closed. The closed dishes were labeled and held at 80°-85° F. for three days. Although the larvae could easily consume the whole leaf within twenty-four hours, no more food was added. Larvae which were unable to move the length of the body, even upon stimulation by prodding, were considered dead. Percent mortality was recorded for various concentration levels.

[4] = system: Mexican bean beetle (Epilachna varivestis, Muls.); experiment: Mexican Bean Beetle Leaf Spray Test; parameters: key: A: excellent control; B: partial control; C: no control; details: 500 parts per million leaf spray; fourth instar larvae; three days
Protocol: as §1
Fourth instar larvae of the Mexican bean beetle (Epilachna varivestis, Muls.), reared on Tendergreen bean plants at a temperature of 80°±5° F. and 50±5 percent relative humidity, were the test insects.
The test compounds were formulated by diluting the stock suspension with water to give a suspension containing 500 parts of test compound per million parts of final formulation. Potted Tendergreen bean plants of standard height and age were placed on a revolving turntable and sprayed with 100-110 milliliters of test compound formulation by use of a DeVilbiss spray gun set at 10 psig air pressure. This application, which lasted 25 seconds, was sufficient to wet plants to run-off. As a control, 100-110 milliliters of a water-acetone-emulsifier solution containing no test compound were also sprayed on infested plants. When dry, the paired leaves were separated and each was placed in a 9 centimeter Petri dish lined with moistened filter paper. Five randomly selected larvae were introduced into each dish, and the dishes were closed. The closed dishes were labeled and held at a temperature of 80°±5° F. for three days. Although the larvae could easily consume the leaf within 24 to 48 hours, no more food was added. Larvae which were unable to move the length of the body, even upon stimulation, were considered dead.

[5] = system: two-spotted mite (Tetranychus urticae Koch); experiment: Mite Foliage Spray Test; parameters: key: A: excellent control; B: partial control; C: no control; details: 500 parts per million foliage spray; six days
Protocol: as §1
Adults and nymphal stages of the two-spotted mite (Tetranychus urticae Koch), reared on Tendergreen bean plants at 80±5 percent relative humidity, were the test organisms. Infested leaves from a stock culture were placed on the primary leaves of two bean plants six to eight inches in height, growing in a two-and-a-half inch clay pot. 150-200 Mites, a sufficient number for testing, transferred from the excised leaves to the fresh plants in a period of twenty four hours. Following the twenty four hour transfer period, the excised leaves were removed from the infested plants. The test compounds were formulated by diluting the stock suspension with water to give a suspension containing 500 parts of test compound per million parts of final formulation. The potted plants (one pot per compound) were placed on a revolving turntable and sprayed with 100-110 milliliters of test compound formulation by use of a DeVilbiss spray gun set at 40 psig. air pressure. This application, which lasted 25 seconds, was sufficient to wet the plants to run-off. As a control, 100-110 milliliters of a water solution containing acetone and emulsifier in the same concentrations as the test compound formulation, but containing no test compound, were also sprayed on infested plants. The sprayed plants were held at 80±5 percent relative humidity for six days, after which a mortality count of motile forms was made. Microscopic examination for motile forms was made on the leaves of the test plants. Any individual which was capable of locomotion upon prodding was considered living.

[6] = system: root-knot nematode (Meloidogyne incognita var. acrita); experiment: Nematode Test; parameters: key: 1: severe galling; equal to untreated control; 2: moderate galling; 3: light galling; 4: very light galling; 5: no galling; details: 10 ml of 500 parts per million formulation per jar of soil; cucumber indicator crop, approximately three weeks
Protocol: as §1
Infective migratory larvae of the root-knot nematode, (Meloidogyne incognita var. acrita) were reared in the greenhouse on roots of Rutgers variety tomato plant. Infected tomato plants were removed from the culture and the roots were chopped very finely. A small amount of inoculum from the roots was added to pint Mason jars containing approximately 180 cc of soil. The jars containing the inoculum and soil were capped and incubated for one week at room temperature. During this period eggs of the nematode hatched and the larvae forms migrated into the soil.
The test compounds were formulated by diluting the stock suspension with water to give a suspension containing 500 parts of test compound per million parts of final formulation. 10 milliliters of the test formulation was added to each of two jars for each dosage treated. As a control 10 milliliters of a water-acetone-emulsifier solution containing no test compound was also added to jars containing nematode larvae. The jars were capped and the contents thoroughly mixed on a kale mill for five minutes. The jars remained capped at room temperature for a period of 48 hours and the contents were then transferred to 3 inch pots. Subsequently, the pots were seeded to cucumber as an indicator crop and placed in the green house where they were cared for in the normal fashion for growing potted cucumber for approximately three weeks. These cucumber plants were then removed from the pots, the soil washed from the roots and the amount of galling visually rated.

CN(SSc1ccc(C(C)(C)C)cc1)C(=O)ON=C1CSCCS1
Aphid, pesticidal activity rating [1]: A
H. Fly, pesticidal activity rating [2]: A
S. Armyworm, pesticidal activity rating [3]: A
M. Bean Beetle, pesticidal activity rating [4]: A
Mite, pesticidal activity rating [5]: A
Nematodes, nematocidal toxicity rating (galling) [6]: 4
